Experiments:
Format in all cases: functional, T cell line
[1] = Induction of anti-CD3/CD28 antibodies-stimulated human T cell activation at 4 uM assessed fold increase in CD25 expression measured by ELISA assay
[2] = Induction of anti-CD3 antibodies-stimulated human T cell activation at 1 uM assessed fold increase in CD25 expression measured by ELISA assay; also: reference of the scale not given here
[3] = Induction of anti-CD3/CD28 antibodies-stimulated human T cell activation at 1 uM assessed fold increase in CD25 expression measured by ELISA assay
[4] = Induction of anti-CD3/CD28 antibodies-stimulated human T cell activation at 1 uM assessed fold increase in IL-2 secretion measured by ELISA assay
[5] = Induction of anti-CD3/CD28 antibodies-stimulated human T cell activation at 0.3 uM assessed fold increase in IL-2 secretion measured by ELISA assay
[6] = Induction of anti-CD3/CD28 antibodies-stimulated human T cell activation at 0.3 uM assessed fold increase in CD25 expression measured by ELISA assay
[7] = Induction of anti-CD3 antibodies-stimulated human T cell activation at 8 uM assessed fold increase in IL-2 secretion measured by ELISA assay; also: reference of the scale not given here
[8] = Induction of anti-CD3 antibodies-stimulated human T cell activation at 8 uM assessed fold increase in CD25 expression measured by ELISA assay; also: reference of the scale not given here
[9] = Induction of anti-CD3 antibodies-stimulated human T cell activation at 1 uM assessed fold increase in IL-2 secretion measured by ELISA assay; also: reference of the scale not given here
[10] = Induction of anti-CD3/CD28 antibodies-stimulated human T cell activation at 4 uM assessed fold increase in IL-2 secretion measured by ELISA assay

| SMILES | fold change (FC) [1] | fold change (FC) [2] | fold change (FC) [3] | fold change (FC) [4] | fold change (FC) [5] | fold change (FC) [6] | fold change (FC) [7] | fold change (FC) [8] | fold change (FC) [9] | fold change (FC) [10] |
| --- | --- | --- | --- | --- | --- | --- | --- | --- | --- | --- |
| C[C@H](Cc1nncn1C)c1cccc(NC(=O)c2cc(C3(O)COC3)cc(C(F)(F)F)n2)c1 | >=1.76 | 0.601 | >=1.76 | 1.01 | <=1 | >=1.76 | 0.101 | >=1.001 | <=0.05 | 5 |
| C[C@H](Cc1nncn1C)c1cc(OC2COC2)nc(N2Cc3c(cccc3C(F)(F)F)C2=O)c1 | 1.31 | 0.601 | 1.01 | 1.01 | 1.01 | 1.01 | >=0.201 | >=1.001 | 0.101 | 1.01 |
| Cn1cnnc1C(F)(F)[C@](C)(F)c1cccc(NC(=O)c2nc3c(C(F)(F)F)cccc3[nH]2)c1 | 1.01 | 0.601 | 1.01 | 1.01 | 1.01 | 1.01 | 0.151 | 0.601 | 0.051 | 2.51 |
| Cc1nc2cc([C@H](C)Sc3nncn3C)cc(NC(=O)c3cccc(C(F)(F)F)n3)c2o1 | >=1.76 | 0.601 | 1.51 | 5 | 2.51 | 1.31 | >=0.201 | >=1.001 | <=0.05 | >=7.5 |
| C[C@H](Cc1nncn1C)c1cc(NC2CCOC2)nc(N2Cc3c(cccc3C(F)(F)F)C2=O)c1 (single isomer, unassigned) | 1.01 | 0.601 | 1.01 | 1.01 | 1.01 | <=1 | 0.151 | 0.801 | 0.051 | 1.01 |
| C[C@H](Cc1nncn1C)c1cccc(NC(=O)c2cnn3cccnc23)c1 | 1.01 | 0.601 | <=1 | 1.01 | 1.01 | <=1 | 0.051 | 0.601 | 0.051 | 1.01 |
| C[C@H](Sc1nncn1C)c1cccc(NC(=O)c2cccc(S(C)(=O)=O)n2)c1 | 1.01 | <=0.6 | 1.01 | 1.01 | <=1 | 1.01 | <=0.05 | <=0.6 | <=0.05 | 1.01 |
| Cc1c[nH]nc1C[C@H](C)c1cccc(N2Cc3c(cccc3C(F)(F)F)C2=O)c1 (single isomer, unassigned) | 1.01 | 0.601 | 1.01 | 1.01 | 1.01 | 1.01 | 0.151 | 0.801 | 0.101 | 1.01 |
| C[C@H](Sc1nncn1C)c1cccc(NC(=O)c2cc(C(C)(C)O)cc(C(F)(F)F)n2)c1 | 1.01 | 0.601 | 1.01 | <=1 | <=1 | 1.01 | <=0.05 | >=1.001 | <=0.05 | 1.01 |
| C[C@H](Cc1nncn1C)c1cccc(NC(=O)c2cc(S(C)(=O)=O)cc(C3CC3)n2)c1 | <=1 | 0.801 | 1.01 | 1.01 | 1.01 | 1.01 | >=0.201 | >=1.001 | 0.101 | 1.01 |
| Cn1cnnc1C[C@](C)(F)c1cccc(N2Cc3c(cccc3C(F)(F)F)C2=O)c1 | 1.01 | 0.601 | <=1 | 1.01 | 1.01 | 1.01 | 0.101 | 0.801 | 0.051 | 1.01 |
| Cn1cnnc1[C@@H](F)[C@](C)(F)c1cccc(N2Cc3c(cccc3C(F)(F)F)C2=O)c1 (single isomer, unassigned) | 1.01 | <=0.6 | 1.01 | 1.01 | 1.01 | 1.01 | 0.051 | 0.601 | <=0.05 | 1.01 |
| Cn1cnnc1[C@H](F)[C@@](C)(F)c1cccc(N2Cc3c(cc(C4CC4)cc3C(F)(F)F)C2=O)c1 (single isomer, unassigned; 483) | 1.01 | 0.601 | 1.01 | 1.01 | <=1 | 1.01 | 0.051 | 0.801 | 0.051 | 1.01 |
| C[C@H](Cc1nncn1C)c1ccnc(N2Cc3c(cccc3C(F)(F)F)C2=O)c1 | 1.31 | <=0.6 | 1.01 | <=1 | <=1 | 1.01 | <=0.05 | <=0.6 | <=0.05 | 1.01 |
| Cc1cc(C(=O)Nc2cccc([C@H](C)Sc3nncn3C)c2)nc2ccccc12 | 1.01 | 0.601 | 1.01 | 1.01 | 1.01 | 1.01 | 0.101 | 0.801 | 0.051 | 2.51 |
| C[C@H](Sc1nncn1C)c1cccc(NC(=O)c2cccc(C(C)(F)F)n2)c1 | >=1.76 | 0.801 | 1.51 | <=1 | <=1 | 1.01 | 0.151 | >=1.001 | <=0.05 | 2.51 |
